# Measured values as given in ChEMBL document CHEMBL1773000, “Synthesis and biological activity of 22-deoxo-23-oxa analogues of saponin OSW-1” (J Med Chem, 2011).
# What was measured:
# [1] = test system: HeLa; experiment: Cytotoxicity against human HeLa cells assessed as viable cells after 72 hrs by calcein AM assay; format: functional, cell-based
# [2] = test system: G-361; experiment: Cytotoxicity against human G361 cells assessed as viable cells after 72 hrs by calcein AM assay; format: functional, cell-based; details: G-361, 72 h
# [3] = test system: HCT-116; experiment: Cytotoxicity against human HCT116 assessed as viable cells after 72 hrs by calcein AM assay; format: functional, cell-based; details: HCT-116, 72 h
# [4] = test system: A549; experiment: Cytotoxicity against human A549 cells assessed as viable cells after 72 hrs by calcein AM assay; format: functional, cell-based; details: A549, 72 h
# [5] = Cytotoxicity against human T98 cells assessed as viable cells after 72 hrs by calcein AM assay; format: functional, cell-based; details: T98, 72 h
# [6] = test system: CCRF-CEM; experiment: Cytotoxicity against human CEM cells assessed as viable cells after 72 hrs by calcein AM assay; format: functional, cell-based
# [7] = test system: MCF7; experiment: Cytotoxicity against human MCF7 cells assessed as viable cells after 72 hrs by calcein AM assay; format: functional, cell-based; details: MCF7, 72 h
# [8] = test system: BJ; experiment: Cytotoxicity against human BJ cells assessed as viable cells after 72 hrs by calcein AM assay; format: cell-based
# [9] = test system: HOS; experiment: Cytotoxicity against human HOS cells assessed as viable cells after 72 hrs by calcein AM assay; format: functional, cell-based
SMILES,IC50 [1],IC50 [2],IC50 [3],IC50 [4],IC50 [5],IC50 [6],IC50 [7],IC50 [8],IC50 [9]
CCCCCCCCC(=O)OC[C@@H](C)[C@@]1(O)[C@@H](O[C@@H]2OC[C@H](O)[C@H](O[C@@H]3OC[C@@H](O)[C@H](O)[C@H]3OC(=O)c3ccc(OC)cc3)[C@H]2OC(C)=O)C[C@H]2[C@@H]3CC=C4C[C@@H](O)CC[C@]4(C)[C@H]3CC[C@@]21C,47 nM,15 nM,4900 nM,590 nM,11 nM,7.2 nM,26 nM,7 nM,2800 nM
CCCCCCC(=O)OC[C@@H](C)[C@@]1(O)[C@@H](O[C@@H]2OC[C@H](O)[C@H](O[C@@H]3OC[C@@H](O)[C@H](O)[C@H]3OC(=O)c3ccc(OC)cc3)[C@H]2OC(C)=O)C[C@H]2[C@@H]3CC=C4C[C@@H](O)CC[C@]4(C)[C@H]3CC[C@@]21C,30 nM,1280 nM,,20 nM,,10 nM,400 nM,600 nM,
COc1ccc(C(=O)O[C@H]2[C@H](O[C@@H]3[C@@H](OC(C)=O)[C@H](O[C@H]4C[C@H]5[C@@H]6CC=C7C[C@@H](O)CC[C@]7(C)[C@H]6CC[C@]5(C)[C@@]4(O)[C@H](C)C(=O)CCC(C)C)OC[C@@H]3O)OC[C@@H](O)[C@@H]2O)cc1,3.4 nM,1000 nM,8400 nM,27 nM,70 nM,0.3 nM,2.4 nM,0.2 nM,8200 nM
CCCCCCCCCCCC(=O)OC[C@@H](C)[C@@]1(O)[C@@H](O[C@@H]2OC[C@H](O)[C@H](O[C@@H]3OC[C@@H](O)[C@H](O)[C@H]3OC(=O)c3ccc(OC)cc3)[C@H]2OC(C)=O)C[C@H]2[C@@H]3CC=C4C[C@@H](O)CC[C@]4(C)[C@H]3CC[C@@]21C,42 nM,8 nM,2800 nM,930 nM,7 nM,6.3 nM,21 nM,5 nM,1900 nM
CC(C)CCC(=O)[C@@H](C)[C@@]1(O)[C@@H](O)C[C@H]2[C@@H]3CC=C4C[C@@H](O)CC[C@]4(C)[C@H]3CC[C@@]21C,> 50000 nM,> 50000 nM,> 50000 nM,> 50000 nM,> 50000 nM,> 50000 nM,> 50000 nM,> 50000 nM,> 50000 nM
CCCCCCCCCCCCCCCCCC(=O)OC[C@@H](C)[C@@]1(O)[C@@H](O[C@@H]2OC[C@H](O)[C@H](O[C@@H]3OC[C@@H](O)[C@H](O)[C@H]3OC(=O)c3ccc(OC)cc3)[C@H]2OC(C)=O)C[C@H]2[C@@H]3CC=C4C[C@@H](O)CC[C@]4(C)[C@H]3CC[C@@]21C,435 nM,300 nM,> 50000 nM,550 nM,210 nM,58 nM,195 nM,80 nM,> 50000 nM
COc1ccc(C(=O)O[C@H]2[C@H](O[C@@H]3[C@@H](OC(C)=O)[C@H](O[C@H]4C[C@H]5[C@@H]6CC=C7C[C@@H](O)CC[C@]7(C)[C@H]6CC[C@]5(C)[C@@]4(O)[C@H](C)COC(=O)c4ccccc4)OC[C@@H]3O)OC[C@@H](O)[C@@H]2O)cc1,,1660 nM,,170 nM,,70 nM,700 nM,100 nM,
C=CCCCCC(=O)OC[C@@H](C)[C@@]1(O)[C@@H](O[C@@H]2OC[C@H](O)[C@H](O[C@@H]3OC[C@@H](O)[C@H](O)[C@H]3OC(=O)c3ccc(OC)cc3)[C@H]2OC(C)=O)C[C@H]2[C@@H]3CC=C4C[C@@H](O)CC[C@]4(C)[C@H]3CC[C@@]21C,61 nM,44 nM,11000 nM,840 nM,43 nM,21 nM,54 nM,20 nM,6500 nM
CCCCC(=O)OC[C@@H](C)[C@@]1(O)[C@@H](O[C@@H]2OC[C@H](O)[C@H](O[C@@H]3OC[C@@H](O)[C@H](O)[C@H]3OC(=O)c3ccc(OC)cc3)[C@H]2OC(C)=O)C[C@H]2[C@@H]3CC=C4C[C@@H](O)CC[C@]4(C)[C@H]3CC[C@@]21C,170 nM,390 nM,,160 nM,,60 nM,500 nM,500 nM,
COc1ccc(C(=O)O[C@H]2[C@H](O[C@@H]3[C@@H](OC(C)=O)[C@H](O[C@H]4C[C@H]5[C@@H]6CC=C7C[C@@H](O)CC[C@]7(C)[C@H]6CC[C@]5(C)[C@@]4(O)[C@H](C)COCc4ccccc4)OC[C@@H]3O)OC[C@@H](O)[C@@H]2O)cc1,200 nM,750 nM,,100 nM,,20 nM,600 nM,300 nM,
CCCCCCCCCCCCCC(=O)OC[C@@H](C)[C@@]1(O)[C@@H](O[C@@H]2OC[C@H](O)[C@H](O[C@@H]3OC[C@@H](O)[C@H](O)[C@H]3OC(=O)c3ccc(OC)cc3)[C@H]2OC(C)=O)C[C@H]2[C@@H]3CC=C4C[C@@H](O)CC[C@]4(C)[C@H]3CC[C@@]21C,67 nM,30 nM,2800 nM,720 nM,28 nM,16 nM,48 nM,83 nM,2700 nM
